Data published in patent US6444688B1, “Compounds and compositions with nitrogen-containing non-basic side chains” (Eli Lilly and Company, priority 1995, dated 2002).
Where “and” joins values, the source holds several entries; their conditions need not be identical. Equal values may be shown once. Marks after values point to notes of the source that are not given here.

Tests used:
Type in all cases: in vivo, Sprague Dawley rats
[1] = tested on: ovariectomized (OVX) rats; assay: Four day dosing regimen, post-menopausal rat model: wet uterine weight; settings: OVX rats, oral, daily for 4 days
Description: (§1) Animals were dosed daily for 4 days. […] A blood sample was collected by cardiac puncture.

[2] = tested on: uterine eosinophil peroxidase activity; assay: Uterine eosinophil peroxidase (EPO) assay, four day dosing; settings: OVX rats, oral, daily for 4 days
Description: as §1

[3] = tested on: ovariectomized (OVX) rats; assay: Serum cholesterol analysis, four day dosing; settings: Rattus norvegicus, po, 96 h, OVX rats, oral, daily for 4 days, read-out: Serum Cholesterol (% dec. OVX)
Description: as §1
Blood samples were allowed to clot at room temperature for 2 hours, and serum was obtained following centrifugation for 10 minutes at 3000 rpm. Serum cholesterol was determined using a Boehringer Mannheim Diagnostics high performance cholesterol assay. Briefly the cholesterol was oxidized to cholest-4-en-3-one and hydrogen peroxide. The hydrogen peroxide was then reacted with phenol and 4-aminophenazone in the presence of peroxidase to produce a p-quinone imine dye, which was read spectrophotemetrically at 500 nm. Cholesterol concentration was then calculated against a standard curve. The entire assay was automated using a Biomek Automated Workstation.

Structure (SMILES) | Uterine Weight (% inc. OVX) ([1]; dose 0.1 mg/kg) | Uterine Weight (% inc. OVX) ([1]; dose 1 mg/kg) | Uterine Weight (% inc. OVX) ([1]; dose 10 mg/kg) | Uterine EPO (Vmax) ([2]; dose 0.1 mg/kg) | Uterine EPO (Vmax) ([2]; dose 1 mg/kg) | Uterine EPO (Vmax) ([2]; dose 10 mg/kg) | Uterine Weight (% inc. OVX) ([1]; dose 0.01 mg/kg) | Uterine EPO (Vmax) ([2]; dose 0.01 mg/kg) | inhibition in vivo at 0.01 mg/kg ([3]; dose 0.01 mg/kg) | inhibition in vivo at 0.1 mg/kg [3] | inhibition in vivo at 10 mg/kg [3] | inhibition in vivo at 1 mg/kg [3]
O=C(c1ccc(OCCN2CCCCC2=O)cc1)c1c(-c2ccc(O)cc2)sc2cc(O)ccc12 [Compound 3] | 13.3 % inc. OVX | 17.8 % inc. OVX | 57.6* % inc. OVX | 8.0 Vmax | 7.8 Vmax | 8.9 Vmax | – | – | – | – | – | –
O=C(c1ccc(OCCN2CCCC2=O)cc1)c1c(-c2ccc(O)cc2)sc2cc(O)ccc12 [Compound 6] | −9 % inc. OVX | 15.4 % inc. OVX | 40.3* % inc. OVX | 3.6 Vmax | 1.4 Vmax | 3.7 Vmax | – | – | – | – | – | –
O=C(c1ccc(OCC(=O)N2CCCC2)cc1)c1c(-c2ccc(O)cc2)sc2cc(O)ccc12 [Compound 8] | – | – | – | 3.6 Vmax and 4.4 Vmax | 6.1 Vmax and 3.7 Vmax | – | −22.9 % inc. OVX | 3.5 Vmax | 27.2% | 17.4% | 70.3% | –
O=C(c1ccc(OCC(=O)N2CCCCC2)cc1)c1c(-c2ccc(O)cc2)sc2cc(O)ccc12 [Compound 9] | −10.0 % inc. OVX | 6.5 % inc. OVX | 51.7* % inc. OVX | 2.8 Vmax | 3.6 Vmax | 32 Vmax | – | – | – | – | – | –
CCCCN(C)C(=O)COc1ccc(C(=O)c2c(-c3ccc(O)cc3)sc3cc(O)ccc23)cc1 [Compound 10] | 1.5 % inc. OVX | −6.7 % inc. OVX | 38.0* % inc. OVX | 4.3 Vmax | 3.1 Vmax | 17.0 Vmax | – | – | – | – | – | –
CN(C)C(=O)COc1ccc(C(=O)c2c(-c3ccc(O)cc3)sc3cc(O)ccc23)cc1 [Compound 12] | −7.7 % inc. OVX | 15.4 % inc. OVX | 60.7* % inc. OVX | 3.7 Vmax | 6.7 Vmax | 122.3* Vmax | – | – | – | – | – | –
O=C(c1ccc(OCCN2C(=O)CCC2=O)cc1)c1c(-c2ccc(O)cc2)sc2cc(O)ccc12 [Compound 13] | 22.2 % inc. OVX | 7.2 % inc. OVX | −4.0 % inc. OVX | 1.9 Vmax | 1.7 Vmax | 2.5 Vmax | – | – | – | – | – | –
N#CCOc1ccc(C(=O)c2c(-c3ccc(O)cc3)sc3cc(O)ccc23)cc1 [Compound 14] | 18.8 % inc. OVX | 14.6 % inc. OVX | 124.6* % inc. OVX | 3.3 Vmax | 2.4 Vmax | 145.8* Vmax | – | – | – | – | 91.1% | –
CC(C#N)Oc1ccc(C(=O)c2c(-c3ccc(O)cc3)sc3cc(O)ccc23)cc1 (stereo not shown) [Compound 16] | 0.7 % inc. OVX | 27.4 % inc. OVX | 99.2* % inc. OVX | 2.3 Vmax | 3.9 Vmax | 23.4 Vmax | – | – | – | 3.4% | 71.2% | 28.8%
O=C(NCCOc1ccc(C(=O)c2c(-c3ccc(O)cc3)sc3cc(O)ccc23)cc1)c1ccccc1 [Compound 18] | 16.1 % inc. OVX | 25.7 % inc. OVX | 12.6 % inc. OVX | 3.2 Vmax | 3.6 Vmax | 3.6 Vmax | – | – | – | -10.8% | 12.8% | -12.2%
CC(=O)N(CCOc1ccc(C(=O)c2c(-c3ccc(O)cc3)sc3cc(O)ccc23)cc1)C1CCCCC1 [Compound 19] | 7 % inc. OVX | −25.5* % inc. OVX | 47.0* % inc. OVX | 5.4 Vmax | 3.7 Vmax | 29.3* Vmax | – | – | – | – | 52.2% | 20.1%
O=C(NCCOc1ccc(C(=O)c2c(-c3ccc(O)cc3)sc3cc(O)ccc23)cc1)NC1CCCCC1 [Compound 20] | −29.9 % inc. OVX | −27.4 % inc. OVX | −32.7 % inc. OVX | 3.0 Vmax | 2.5 Vmax | 2.9 Vmax | – | – | – | – | – | –
O=C(c1ccc(OCCNC(=O)C2CCCCC2)cc1)c1c(-c2ccc(O)cc2)sc2cc(O)ccc12 [Compound 21] | −5.5 % inc. OVX | −11.5 % inc. OVX | 8.6 % inc. OVX | 3.1 Vmax | 2.6 Vmax | 2.4 Vmax | – | – | – | 9.3% | 24% | 0.5%
CC(C)(C)C(=O)N1CCCCC1COc1ccc(C(=O)c2c(-c3ccc(O)cc3)sc3cc(O)ccc23)cc1 (stereo not shown) [Compound 22] | 1.9 % inc. OVX | 19.6 % inc. OVX | 46.9* % inc. OVX | 3.5 Vmax | 20.0 Vmax | 69.5* Vmax | – | – | – | 22.1% | 71.5% | 36.2%
CC(C)(C)C(=O)N1CCC(Oc2ccc(C(=O)c3c(-c4ccc(O)cc4)sc4cc(O)ccc34)cc2)CC1 [Compound 23] | −4.3 % inc. OVX | 0.8 % inc. OVX | 22.3 % inc. OVX | 1.6 Vmax | 3.8 Vmax | 6.7 Vmax | – | – | – | – | 55.8% | –
CC(=O)NCCOc1ccc(C(=O)c2c(-c3ccc(O)cc3)sc3cc(O)ccc23)cc1 [Compound 26] | −17.5 % inc. OVX | −28.8* % inc. OVX | 25.8* % inc. OVX | 1.3 Vmax | 0.7 Vmax | 13.6 Vmax | – | – | – | – | 32.8% | 19%
